According to the Deep4Chem optical property database:
“And” between values parts separate entries of the source, which are not always exact repeats. Equal values may be shown once.

Test: solvent given as SMILES

## CC(C)(C)NC(=O)c1ccc(-c2ccc(N3c4ccccc4Oc4ccccc43)cc2)c2ccc3c4ccc(F)cc4c4cc(F)ccc4c3c12
In ClCCl
  emission maximum: 573 nm

## Cc1ccc(S(=O)(=O)Nc2cc(-c3ccc(N(C)C)cc3)sc2/C=C/c2ccccc2)cc1
In CC#N
  emission maximum: 604 nm

## Cc1ccc(C2=C3C=C(I)C=[N+]3[B-](F)(F)n3cc(I)cc32)cc1
In C1CCCCC1
  emission maximum: 567.5 nm
In CC#N
  emission maximum: 573 nm
In CCO
  emission maximum: 573 nm
In CCOC(C)=O
  emission maximum: 569.5 nm
In CO
  emission maximum: 572 nm
In OCC(F)(F)F
  emission maximum: 567.5 nm

## COc1ccc2c(c1)[n+]([O-])nc(N)[n+]2[O-]
In CC#N
  emission maximum: 510 nm
In O
  emission maximum: 542 nm

## CC(C)(C)c1cc(-c2ccc(-c3cccs3)s2)c2c(c1)c1cc(C(C)(C)C)cc(-c3ccc(-c4cccs4)s3)c1n2-c1ccc(-c2cccs2)s1
In ClCCl
  emission maximum: 434 nm

## N#Cc1c(-n2c3ccccc3c3ccccc32)c(-n2c3ccccc3c3ccccc32)c(-n2c3ccccc3c3ccccc32)c(-n2c3ccccc3c3ccccc32)c1-n1c2ccccc2c2ccccc21
In CCCCCC
  emission maximum: 451.82 nm
In CCO
  emission maximum: 515.31 nm
In Cc1ccccc1
  emission maximum: 464 nm and 470 nm
In ClCCl
  emission maximum: 497.22 nm
In c1cc(-c2cccc(-n3c4ccccc4c4ccccc43)c2)cc(-n2c3ccccc3c3ccccc32)c1
  emission maximum: 486 nm

## O=C1c2ccc(-c3ccc(N(c4ccccc4)c4ccccc4)cc3)cc2C(=O)c2ccc(-c3ccc(N(c4ccccc4)c4ccccc4)cc3)cc21
In Cc1ccccc1
  emission maximum: 597 nm
In c1ccc2c(c1)c1ccccc1n2-c1ccc(-c2ccc(-n3c4ccccc4c4ccccc43)cc2)cc1
  emission maximum: 594 nm

## O=P1(c2ccccc2)C(c2ccccc2)=Cc2ccccc21 (centres undefined)
In C1CCOC1
  emission maximum: 417 nm
In ClCCl
  emission maximum: 423 nm

## c1cc2c([nH]c3c4[nH]c5sccc5c4c4nsnc4c23)s1
In C1CCOC1
  emission maximum: 511 nm
In CCOC(C)=O
  emission maximum: 510 nm
In CN(C)C=O
  emission maximum: 547 nm
In Cc1ccccc1
  emission maximum: 496 nm
In ClCCl
  emission maximum: 533 nm

## N#CC1=CC(Br)=CC(C#N)=P1(c1ccccc1)c1ccccc1
In ClC(Cl)Cl
  emission maximum: 519 nm

## COCCC1=Cc2nc1ccc1[nH]c(cc1CCOC)c1nc(c(OC(C)=O)cc3[nH]c2cc3CCOC)C(CCOC)=C1
In Cc1ccccc1
  emission maximum: 652 nm

## CC1(C)c2ccccc2N(c2ccc3c(c2)Oc2ccccc2P3(=O)c2ccccc2)c2ccccc21 (centres undefined)
In Cc1ccccc1
  emission maximum: 433 nm
In O=P(c1ccccc1)(c1ccccc1)c1ccccc1Oc1ccccc1P(=O)(c1ccccc1)c1ccccc1
  emission maximum: 434 nm

## Cc1c(C)c(-c2ccc(-c3cccnc3)cc2)c(C)c(C)c1B(c1c(C)c(C)c(-c2ccc(-c3cccnc3)cc2)c(C)c1C)c1c(C)c(C)c(-c2ccc(-c3cccnc3)cc2)c(C)c1C
In ClCCl
  emission maximum: 404 nm

## COc1ccc2c(c1)-c1cc3c(cc1[Si]2(c1ccccc1)c1ccccc1)-c1ccccc1[Si]3(c1ccccc1)c1ccccc1
In ClCCl
  emission maximum: 397 nm

## CC[N+](CC)=c1ccc2c(-c3ccccc3C(=O)O)c3cc4c(-c5ccccc5C(=O)O)c5ccc(=[N+](CC)CC)cc-5oc4cc3oc-2c1
In ClC(Cl)Cl
  emission maximum: 622 nm

## COc1ccc2cc(C(C)C(=O)Oc3ccc(-c4c5nc(c(-c6ccc(C)cc6)c6ccc([nH]6)c(-c6ccc(C)cc6)c6nc(c(-c7ccc(C)cc7)c7ccc4[nH]7)C=C6)C=C5)cc3)ccc2c1 (centres undefined)
In ClCCl
  emission maximum: 654 nm

## Fc1c(-n2c3ccccc3c3ccccc32)c(F)c(-n2c3ccccc3c3ccccc32)c(-c2nnc(-c3ccccc3)o2)c1-n1c2ccccc2c2ccccc21
In Cc1ccccc1
  emission maximum: 490 nm

## CCCCCCC1(CCCCCC)c2cc(-c3ccc(-c4ccc(-c5ccc(-c6ccc7c(c6)C(CCCCCC)(CCCCCC)c6cc(-n8c9ccc(-n%10c%11ccccc%11c%11ccccc%11%10)cc9c9cc(-n%10c%11ccccc%11c%11ccccc%11%10)ccc98)ccc6-7)s5)c5nsnc45)s3)ccc2-c2ccc(-n3c4ccc(-n5c6ccccc6c6ccccc65)cc4c4cc(-n5c6ccccc6c6ccccc65)ccc43)cc21
In ClCCl
  emission maximum: 608 nm

## O=C1OC(=O)C2=C1S[C@]13C2=C[C@H](c2ccccc21)c1ccccc13
In ClCCl
  emission maximum: 514 nm

## CCN(CC)c1ccc2cc(-c3nc4c5cccc6ccc7cccc(c7c65)c4n3-c3ccc(C(C)(C)C)cc3)c(=O)oc2c1
In ClCCl
  emission maximum: 519 nm

## CN(C)c1ccc(C2=CC3=C(c4ccc(C=C(C#N)C#N)cc4)[C@H]4c5ccccc5[C@]3(S2)c2ccccc24)cc1
In ClCCl
  emission maximum: 735 nm

## C[N+]1=C(/C=C/C2=C3Oc4c(cc5c6c4CCCN6CCC5)C(c4ccccc4C(=O)O)=C3CCC2)C(C)(C)c2c1ccc1ccccc21
In CC#N
  emission maximum: 780 nm
In CCO
  emission maximum: 763 nm
In CO
  emission maximum: 768 nm
In ClC(Cl)Cl
  emission maximum: 775 nm

## COCCOCCOCCOc1ccc(/C=C/C2=[N+]3C(=C(c4cc(OC)cc(OC)c4)c4c(C)c(I)c(/C=C/c5ccc(OCCOCCOCCOC)cc5)n4[B-]3(F)F)C(C)=C2I)cc1
In C1CCOC1
  emission maximum: 684 nm
In CS(C)=O
  emission maximum: 695 nm
In ClCCl
  emission maximum: 687 nm

## CC(C)Nc1cc2sc3cc(NC(C)C)c(F)cc3c(=O)c2cc1F
In CCO
  emission maximum: 446 nm

## C[Si](C)(C)C#CC#Cc1ccc2c3cccc4cccc(c5cccc1c52)c43
In C1CCCCC1
  emission maximum: 477.08 nm

## F[B-]1(F)n2c(ccc2-c2nc3ccccc3s2)C(c2ccccc2)=C2C=CC(c3nc4ccccc4s3)=[N+]21
In ClC(Cl)Cl
  emission maximum: 643 nm

## C#CCn1c2ccccc2c2cc(/C=C/c3cc(C)c4n3[B-](F)(F)[N+]3=C(C)C=C(C)C3=C4c3ccc(I)cc3)ccc21
In CC#N
  emission maximum: 605 nm
In CS(C)=O
  emission maximum: 614 nm
In ClC(Cl)Cl
  emission maximum: 607 nm

## CCOC(=O)CC[N+]1=c2cc3c(cc2CCC1)=Cc1c(c2ccc(N(C)C)cc2oc1=O)O3
In CC#N
  emission maximum: 643 nm
In CO
  emission maximum: 641 nm
In ClCCl
  emission maximum: 637 nm
In O
  emission maximum: 644 nm

## CC[N+]1(CC)CN2C(=N1)C(C(=O)O)=Cc1cc(OC)c(OC)cc12
In O
  emission maximum: 472 nm

## C=CCNc1ccc2ccc3oc4cc(=[N+]5CCCC5)ccc-4nc3c2c1
In CC#N
  emission maximum: 635 nm
In CCO
  emission maximum: 632 nm
In ClCCl
  emission maximum: 622 nm
In O
  emission maximum: 650 nm

## c1ccc(C2c3ccccc3-c3ccccc32)cc1
In CCO
  emission maximum: 305 nm

## Cc1ccc(-c2ccc(-c3ccc(C)cc3)c(/C(=C(/c3ccccc3)c3cc(-c4ccc(C)cc4)ccc3-c3ccc(C)cc3)c3ccccc3)c2)cc1
In C1CCOC1
  emission maximum: 492 nm

## CC(C)c1cc(C(C)C)c(B2c3ccccc3Oc3cc(N4c5ccccc5C5(c6ccccc6-c6ccccc65)c5ccccc54)ccc32)c(C(C)C)c1
In Cc1ccccc1
  emission maximum: 456 nm

## O=P1(c2ccccc2)c2cccc3c4c5ccccc5c5ccccc5c4c4ccc1n4c23 (centres undefined)
In ClCCl
  emission maximum: 490 nm

## O=C1CC(c2ccc(Cl)cc2)c2c(c3ccccc3c3nc4ccccc4nc23)O1 (centres undefined)
In ClC(Cl)Cl
  emission maximum: 434 nm

## CC1(C)C(/C=C/C=C/C=C/C=C2/N(CCCCS(=O)(=O)[O-])c3ccc4ccccc4c3C2(C)C)=[N+](CCCCS(=O)(=O)[O-])c2ccc3ccccc3c21
In CO
  emission maximum: 817 nm

## COc1ccc(C2=C(c3ccc(OC)cc3)C(C)(C)c3ccccc32)cc1
In C1CCCCC1
  emission maximum: 391 nm

## COc1ccc2c(c1)sc1[n+]2[B-](F)(F)OC(c2ccc(N(C)C)cc2)=N1
In C1CCOC1
  emission maximum: 466 nm
In CC#N
  emission maximum: 481 nm
In CC(C)=O
  emission maximum: 477 nm
In Cc1ccccc1
  emission maximum: 454 nm
In ClCCl
  emission maximum: 467 nm

## CN(C)c1ccc(C#Cc2ccc3ccc4ccc(C#Cc5ccc(N(C)C)cc5)c5ccc2c3c45)cc1
In C1COCCO1
  emission maximum: 491.8 nm
In CC(C)=O
  emission maximum: 570.9 nm
In CCCCCC
  emission maximum: 459 nm
In CCCCCCO
  emission maximum: 531.8 nm
In CCO
  emission maximum: 543 nm
In CCOC(C)=O
  emission maximum: 529.9 nm
In CO
  emission maximum: 555.1 nm
In Cc1ccccc1
  emission maximum: 482 nm
In ClCCl
  emission maximum: 532.7 nm

## CN(c1ccccc1)c1ccc(N(c2ccccc2)c2ccc3ccc4c(N(c5ccccc5)c5ccc(N(C)c6ccccc6)cc5)ccc5ccc2c3c54)cc1
In ClCCl
  emission maximum: 620 nm

## F[B-]1(F)OC(c2ccccc2)=Cc2cc3[n+](c[n+]21)[B-](F)(F)OC(c1ccccc1)=C3
In ClCCl
  emission maximum: 490 nm

## C1=CC2=Nc3cccc[n+]3CN2C=C1
In CO
  emission maximum: 448 nm

## Cc1nc2ccc(/C=C/c3ccc(N(C)C)cc3)cc2nc1-c1ccccc1
In C1COCCO1
  emission maximum: 526 nm
In CC#N
  emission maximum: 641 nm
In ClCCl
  emission maximum: 590 nm

## CC1=CC(C)=[N+]2C1=C(c1ccc(Br)cc1)c1c(C)cc(/C=C/c3ccc[nH]3)n1[B-]2(F)F
In ClCCl
  emission maximum: 613 nm

## Cn1c(/C=C/c2ccc(/C=C/c3nc4ccccc4[nH]3)cc2)[n+](C)c2ccccc21
In C1CCOC1
  emission maximum: 576 nm
In CC#N
  emission maximum: 576 nm
In CC(C)=O
  emission maximum: 580 nm
In CN(C)C=O
  emission maximum: 582 nm
In CO
  emission maximum: 567 nm
In CS(C)=O
  emission maximum: 584 nm
In O
  emission maximum: 574 nm

## Nc1cccc2cc3ccccc3cc12
In C1CCCCC1
  emission maximum: 487.09 nm

## F[B-]1(F)n2cccc2C(c2ccccc2)=C2C=CC=[N+]21
In Cc1ccccc1
  emission maximum: 521 nm
In ClCCl
  emission maximum: 522 nm

## CCOC(=O)c1c2c3c(ccc(C)c3c3cc4ccccc4cc13)N(C)C2=O
In CC#N
  emission maximum: 413 nm

## Cc1nc2c(c[n+]1C)CN1C(=O)N([C@H]3O[C@@H](CO)[C@H](O)[C@@H]3O)C=CC1=N2
In CC#N
  emission maximum: 416 nm
In CC(C)=O
  emission maximum: 418 nm
In CCCCO
  emission maximum: 417 nm
In CCCO
  emission maximum: 417 nm
In CCO
  emission maximum: 417 nm
In CO
  emission maximum: 417 nm
In O
  emission maximum: 414 nm
In [2H]OC
  emission maximum: 417 nm
In [2H]OCC
  emission maximum: 417 nm
In [2H]O[2H]
  emission maximum: 414 nm

## C[Si](C)(C)[Si](C)(C)c1ccc2cc3ccccc3cc2c1
In C1CCCCC1
  emission maximum: 411 nm
In CC#N
  emission maximum: 412 nm

## CCCCC(CC)Cn1c2cc(C#N)ccc2c2ccc(C#Cc3cc(C#Cc4ccc5c6ccc(C#N)cc6n(CC(CC)CCCC)c5c4)c4ccc5c(C#Cc6ccc7c8ccc(C#N)cc8n(CC(CC)CCCC)c7c6)cc(C#Cc6ccc7c8ccc(C#N)cc8n(CC(CC)CCCC)c7c6)c6ccc3c4c65)cc21 (centres undefined)
In ClCCl
  emission maximum: 486 nm

## CC1=CC(C)=[N+]2C1=C(c1ccc(I)cc1)c1c(C)cc(C)n1[B-]2(F)F
In ClC(Cl)Cl
  emission maximum: 517.73 nm

## CCCCCCOc1ccc2ccc3oc(=O)cc4cc(OCCCCCC)c1c2c43
In CC1CCCO1
  emission maximum: 490 nm
